According to ChEMBL document CHEMBL1155328, “A conformational constraint improves a beta-secretase inhibitor but for an unexpected reason” (Bioorg Med Chem Lett, 2009):

Columns and labels:
[1] = target: Beta-secretase 1 (Homo sapiens, UniProt P56817); assay: Inhibition of BACE-1
[2] = test system: P-gp; assay: (§1) Apparent permeability in human Caco-2 cells assessed as Pgp efflux ratio from basolateral to apical side to apical to basolateral side; format: ADME, cell-based
[3] = test system: Caco-2; assay: as §1; format: ADME, cell-based

Sequence of Beta-secretase 1 (P56817 whole entry): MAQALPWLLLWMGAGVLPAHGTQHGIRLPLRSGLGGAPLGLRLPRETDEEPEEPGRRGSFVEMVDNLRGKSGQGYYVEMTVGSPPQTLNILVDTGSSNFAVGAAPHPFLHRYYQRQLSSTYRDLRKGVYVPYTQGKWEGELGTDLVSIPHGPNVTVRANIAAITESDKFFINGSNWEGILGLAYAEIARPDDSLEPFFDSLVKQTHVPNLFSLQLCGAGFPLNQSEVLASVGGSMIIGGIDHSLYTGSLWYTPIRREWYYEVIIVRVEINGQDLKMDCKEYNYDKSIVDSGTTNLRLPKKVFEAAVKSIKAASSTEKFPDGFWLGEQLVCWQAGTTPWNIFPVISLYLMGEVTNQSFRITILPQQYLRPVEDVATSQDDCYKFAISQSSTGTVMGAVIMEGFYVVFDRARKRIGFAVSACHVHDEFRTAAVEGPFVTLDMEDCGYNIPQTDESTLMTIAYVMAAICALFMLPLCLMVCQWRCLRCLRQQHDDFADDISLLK

IC50 [1] [nM] | Ratio [3] | Structure (SMILES) | efflux ratio [2]
1800 | 4 | COc1ccc(C(Cc2ccc(C(F)(F)F)cc2)c2cn(C)c(N)n2)cc1 (stereo not given) | –
350 | – | COc1ccc2c(c1)CCC2(Cc1ccc(C(F)(F)F)cc1)c1cn(C)c(N)n1 (stereo not given) | –

Structure (SMILES) | IC50 [1] [nM] | Ratio [3] | efflux ratio [2]
COc1ccc2c(c1F)CCC2(Cc1ccc(C(F)(F)F)cc1)c1cn(C)c(N)n1 (stereo not given) | 63 | – | 3.6
